Read-outs that look alike come from different tables or passages of the source.
Columns and labels:
[1] = tested on: P. falciparum 3D7 parasites; test: P. falciparum growth inhibition assay, 1-cycle (72 h treatment), SYBR DNA staining (library screen at 2 μg/mL and dose-response); type: cell-based, Plasmodium falciparum; settings: for activity at 2 µg/mL: Plasmodium falciparum
[2] = tested on: P. falciparum 3D7 parasites; test: P. falciparum growth inhibition assay, 2-cycle (120 h treatment), delayed-death screen and dose-response; type: cell-based, Plasmodium falciparum; settings: for activity at 2 µg/mL: Plasmodium falciparum
[3] = tested on: T. gondii RH strain (RH-Tub-eYFP) tachyzoites; test: microbe, parasite or virus in culture; type: cell-based, Toxoplasma gondii; settings: for Tg_72h_%Growth_Rep1 / Tg_72h_%Growth_Rep2 / percent parasite growth at 2 µg/mL: 72 h; for percent parasite growth at 2 µg/mL: Toxoplasma gondii
[4] = active against the parasite at 2 μg/mL, no anti-tumour (NS-1) or cytotoxic (fibroblast) activity at 5 μg/mL
[5] = 3D7, library screen at 2 μg/mL, 72 h, % growth, replicate 1, read-out: Pf_72h_%Growth_Rep1
[6] = 3D7, library screen at 2 μg/mL, 72 h, % growth, replicate 2, read-out: Pf_72h_%Growth_Rep2
[7] = 3D7, library screen at 2 μg/mL, 120 h, % growth, replicate 1, read-out: Pf_120h_%Growth_Rep1
[8] = 3D7, library screen at 2 μg/mL, 120 h, % growth, replicate 2, read-out: Pf_120h_%Growth_Rep2
[9] = library screen at 2 μg/mL, % growth, replicate 1, read-out: Tg_72h_%Growth_Rep1
[10] = library screen at 2 μg/mL, % growth, replicate 2, read-out: Tg_72h_%Growth_Rep2
[11] = library screen at 2 μg/mL, 72 h, % growth, replicate 1
[12] = library screen at 2 μg/mL, 72 h, % growth, replicate 2
[13] = library screen at 2 μg/mL, 120 h, % growth, replicate 1
[14] = library screen at 2 μg/mL, 120 h, % growth, replicate 2
[15] = library screen at 2 μg/mL, % growth, replicate 1
[16] = library screen at 2 μg/mL, % growth, replicate 2

CC(=O)O[C@@H]1/C=C\[C@@](C)(O)C(=O)[C@@H](C)C/C=C\[C@H]2[C@H](O)C(C)=C(C)[C@H]3C(Cc4ccccc4)NC(=O)[C@]132 (some centres unmarked) [cytochalasin C]
Pf_72h_%Growth_Rep1 ([1]; P. falciparum, 72 h, screen at 2 μg/mL, replicate 1): 7.71%
Pf_72h_%Growth_Rep2 ([1]; P. falciparum, 72 h, screen at 2 μg/mL, replicate 2): 8.08%
selectivity for P. falciparum in the screens [1, 4]: active selectively against P. falciparum and T. gondii
Pf_120h_%Growth_Rep1 ([2]; P. falciparum, 120 h, screen at 2 μg/mL, replicate 1): 12.52%
Pf_120h_%Growth_Rep2 ([2]; P. falciparum, 120 h, screen at 2 μg/mL, replicate 2): 10.45%
Tg_72h_%Growth_Rep1 ([3]; T. gondii, screen at 2 μg/mL, replicate 1): 0.57%
Tg_72h_%Growth_Rep2 ([3]; T. gondii, screen at 2 μg/mL, replicate 2): 15.53%
selectivity for T. gondii in the screens [3, 4]: active selectively against P. falciparum and T. gondii

CC[C@H](C)[C@H]1O[C@]2(C=C[C@@H]1C)C[C@@H]1C[C@@H](C/C=C(\C)[C@@H](O[C@H]3C[C@H](OC)[C@@H](O[C@H]4C[C@H](OC)[C@@H](O)[C@H](C)O4)[C@H](C)O3)[C@@H](C)/C=C/C=C3\CO[C@@H]4[C@H](O)C(C)=C[C@@H](C(=O)O1)[C@]34O)O2 [Avermectin B1a]
activity at 2 µg/mL [1, 5]: 3.24%
activity at 2 µg/mL [1, 6]: 3.85%
activity at 2 µg/mL [2, 7]: 3.33%
activity at 2 µg/mL [2, 8]: 5.47%
percent parasite growth at 2 µg/mL [3, 9]: 81.9%
percent parasite growth at 2 µg/mL [3, 10]: 76.2%

C/C=C/C=C/C=C/C(=O)N[C@H]1CCCNC(=O)[C@H](C)N(C)C(=O)[C@H](C(C)C)N(C)C1=O [Aspochracin]
Pf_72h_%Growth_Rep1 [1, 11]: 109.60%
Pf_72h_%Growth_Rep2 [1, 12]: 89.28%
Pf_120h_%Growth_Rep1 [2, 13]: 147.75%
Pf_120h_%Growth_Rep2 [2, 14]: 101.25%
Tg_72h_%Growth_Rep1 [3, 15]: 82.68%
Tg_72h_%Growth_Rep2 [3, 16]: 94.06%

COCCC[C@H]1O[C@@](O)([C@H](C)C2CC(OC)C(O)/C=C(C)/C=C(C)/C=C(/C)C(O[C@H]3O[C@H](C)[C@@H](OC)[C@H](O)[C@H]3O)C(C)/C=C(C)/C=C(OC)\C=C(/C)C(=O)O2)[C@H](OC)[C@@H](O)[C@]1(C)O[C@H]1C[C@H](O)[C@H](O[C@H]2C[C@@](C)(O)[C@H](O)[C@@H](C)O2)[C@@H](C)O1 (some centres unmarked) [Amycolatopsin B]
Pf_72h_%Growth_Rep1 [1, 11]: 44.61%
Pf_72h_%Growth_Rep2 [1, 12]: 41.71%
Pf_120h_%Growth_Rep1 [2, 13]: 16.58%
Pf_120h_%Growth_Rep2 [2, 14]: 9.62%
Tg_72h_%Growth_Rep1 [3, 15]: 0.29%
Tg_72h_%Growth_Rep2 [3, 16]: 0.85%

CCC(=O)CCCCC[C@@H]1NC(=O)[C@H]2CCCCN2C(=O)[C@H]([C@@H](C)CC)NC(=O)[C@H](Cc2cn(OC)c3ccccc23)NC1=O [Apicidin]
activity at 2 µg/mL ([1]; 3D7, 72 h, library screen at 2 μg/mL, 72 h, % growth, replicate 1, read-out: Pf_72h_%Growth_Rep1): 1.42%
activity at 2 µg/mL ([1]; 3D7, 72 h, library screen at 2 μg/mL, 72 h, % growth, replicate 2, read-out: Pf_72h_%Growth_Rep2): 5.38%
activity at 2 µg/mL ([2]; 3D7, 120 h, library screen at 2 μg/mL, 120 h, % growth, replicate 1, read-out: Pf_120h_%Growth_Rep1): 2.31%
activity at 2 µg/mL ([2]; 3D7, 120 h, library screen at 2 μg/mL, 120 h, % growth, replicate 2, read-out: Pf_120h_%Growth_Rep2): -15.8%
percent parasite growth at 2 µg/mL [3, 9]: 6.14%
percent parasite growth at 2 µg/mL [3, 10]: 0.42%

CNC1=NC(=O)C(C(C)c2c[nH]c3ccccc23)O1 (centres unmarked) [BIA-I1040]
Pf_72h_%Growth_Rep1 ([1]; P. falciparum 3D7, 72 h, library screen at 2 μg/mL, % growth, replicate 1): 33.91%
Pf_72h_%Growth_Rep2 ([1]; P. falciparum 3D7, 72 h, library screen at 2 μg/mL, % growth, replicate 2): 55.84%
Pf_120h_%Growth_Rep1 ([2]; P. falciparum 3D7, 120 h, library screen at 2 μg/mL, % growth, replicate 1): 17.78%
Pf_120h_%Growth_Rep2 ([2]; P. falciparum 3D7, 120 h, library screen at 2 μg/mL, % growth, replicate 2): 16.99%
Tg_72h_%Growth_Rep1 ([3]; T. gondii RH, library screen at 2 μg/mL, % growth, replicate 1): 45.17%
Tg_72h_%Growth_Rep2 ([3]; T. gondii RH, library screen at 2 μg/mL, % growth, replicate 2): 47.91%

C[C@@H]1CC[C@H](O)/C=C/C(=O)O[C@H](C)CC[C@H](O)/C=C/C(=O)O1 [Pyrenophorol]
Pf_72h_%Growth_Rep1 ([1]; P. falciparum, 72 h, parasite screen 2 μg/mL, % growth, replicate 1): 90.24%
Pf_72h_%Growth_Rep2 ([1]; P. falciparum, 72 h, parasite screen 2 μg/mL, % growth, replicate 2): 103.36%
Pf_120h_%Growth_Rep1 ([2]; P. falciparum, 120 h, parasite screen 2 μg/mL, % growth, replicate 1): 102.30%
Pf_120h_%Growth_Rep2 ([2]; P. falciparum, 120 h, parasite screen 2 μg/mL, % growth, replicate 2): 75.99%
Tg_72h_%Growth_Rep1 ([3]; T. gondii, parasite screen 2 μg/mL, % growth, replicate 1): 105.85%
Tg_72h_%Growth_Rep2 ([3]; T. gondii, parasite screen 2 μg/mL, % growth, replicate 2): 74.43%

O=C(N[C@H](COC(=O)[C@H](Cc1ccccc1)NC(=O)c1ccccc1)Cc1ccccc1)c1ccccc1 [Asperphenamate]
activity at 2 µg/mL [1, 5]: 84.3%
activity at 2 µg/mL [1, 6]: 83.3%
activity at 2 µg/mL [2, 7]: 69.7%
activity at 2 µg/mL [2, 8]: 85.4%
percent parasite growth at 2 µg/mL [3, 9]: 150%
percent parasite growth at 2 µg/mL [3, 10]: 107%
